Data reported in patent US10450297B2, “Sulfonyl amide derivatives for the treatment of abnormal cell growth” (Pfizer, Inc., priority 2007, dated 2019).

Biological target: FAK kinase (catalytic construct FAK(410-689)) (Homo sapiens (Human), UniProt Q05397)
Assay: FAKcd kinase ELISA (inhibition of poly-glu-tyr phosphorylation by FAK(410-689))
Type: biochemical
Conditions: 50 μM final ATP

Sequence of FAK kinase (catalytic construct FAK(410-689)) (Q05397 410-689): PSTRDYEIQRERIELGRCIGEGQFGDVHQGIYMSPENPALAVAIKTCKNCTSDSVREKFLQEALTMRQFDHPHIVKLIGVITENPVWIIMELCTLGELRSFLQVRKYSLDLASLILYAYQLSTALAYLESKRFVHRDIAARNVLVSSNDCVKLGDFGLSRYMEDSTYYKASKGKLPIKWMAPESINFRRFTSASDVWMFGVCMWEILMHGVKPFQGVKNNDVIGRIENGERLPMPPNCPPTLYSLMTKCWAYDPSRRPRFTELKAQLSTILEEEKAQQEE

| IC50 [nM] | SMILES |
| --- | --- |
| 0.6 | Cc1cccc(CNc2nc(Nc3ccc(C(N)=O)cc3)ncc2C(F)(F)F)c1N(C)S(C)(=O)=O [Compound 108, 4-{[4-({3-methyl-2-[methyl(methylsulfonyl)amino]benzyl}amino)-5-(trifluoromethyl)pyrimidin-2-yl]amino}benzamide] |
| 0.6 | Cc1ccc(CNc2nc(Nc3ccc(C(N)=O)cc3)ncc2C(F)(F)F)c(N(C)S(C)(=O)=O)c1 [Compound 109, 4-{[4-({4-methyl-2-[methyl(methylsulfonyl)amino]benzyl}amino)-5-(trifluoromethyl)pyrimidin-2-yl]amino}benzamide] |
| 0.6 | Cc1ccc(N(C)S(C)(=O)=O)c(CNc2nc(Nc3ccc(C(N)=O)cc3)ncc2C(F)(F)F)c1 [Compound 110, 4-{[4-({5-methyl-2-[methyl(methylsulfonyl)amino]benzyl}amino)-5-(trifluoromethyl)pyrimidin-2-yl]amino}benzamide] |
| 0.6 | CS(=O)(=O)Nc1ccccc1CNc1nc(Nc2ccc(C(N)=O)cc2)ncc1C(F)(F)F [Compound 111, 4-{[4-({2-[(methylsulfonyl)amino]benzyl}amino)-5-(trifluoromethyl)pyrimidin-2-yl]amino}benzamide] |
| 0.6 | Cc1ccc(CNc2nc(Nc3ccc(C(N)=O)cc3)ncc2C(F)(F)F)c(NS(C)(=O)=O)c1 [Compound 112, 4-{[4-({4-methyl-2-((methylsulfonyl)amino]benzyl}amino)-5-(trifluoromethyl)pyrimidin-2-yl]amino}benzamide] |
| 0.6 | Cc1cccc(NS(C)(=O)=O)c1CNc1nc(Nc2ccc(C(N)=O)cc2)ncc1C(F)(F)F [Compound 113, 4-{[4-({2-methyl-6-[(methylsulfonyl)amino]benzyl}amino)-5-(trifluoromethyl)pyrimidin-2-yl]amino}benzamide] |
| 0.88 | CN(CCO)C(=O)c1cccc(Nc2ncc(C(F)(F)F)c(NCc3cccnc3N(C)S(C)(=O)=O)n2)c1 [Compound 115, N-(2-hydroxyethyl}-N-methyl-3-({4-[({2-[methyl(methylsulfonyl)amino]pyridin-3-yl)methyl)amino]-5-(trifluoromethyl)pyrimidin-2-yl}amino)benzamide] |
| 1.47 | CN(c1ncccc1CNc1nc(Nc2cccc(C(=O)NC[C@H]3CCCO3)c2)ncc1C(F)(F)F)S(C)(=O)=O [Compound 117, 3-({4-[({2-[methyl(methylsulfonyl)amino]pyridin-3-yl}methyl)amino]-5-(trifluoromethyl)pyrimidin-2-yl}amino)-N-[(2R)-tetrahydrofuran-2-ylmethyl]benzamide] |
| 1.14 | CN(c1ncccc1CNc1nc(Nc2cccc(C(=O)NC3CCCOC3)c2)ncc1C(F)(F)F)S(C)(=O)=O (stereo not shown) [Compound 119, 3-({4-[({2-[methyl(methylsulfonyl)amino]pyridin-3-yl}methyl)amlno]-5-(trifluoromethyl)pyrimidin-2-yl}amino)-N-(tetrahydro-2H-pyran-3-yl)benzamide] |
| 0.94 | CN(c1ncccc1CNc1nc(Nc2cccc(C(=O)NC3CCOCC3)c2)ncc1C(F)(F)F)S(C)(=O)=O [Compound 121, 3-({4-[({2-[methyl(methylsulfonyl)amino]pyridin-3-yl}methyl)amino]-5-(trifluoromethyl)pyrimidin-2-yl}amino)-N-(tetrahydro-2H-pyran-4-yl)benzamide] |
| 2.15 | CN(c1ncccc1CNc1nc(Nc2cccc(C(=O)N3CCOCC3)c2)ncc1C(F)(F)F)S(C)(=O)=O [Compound 123, N-methyl-N-[3-({(2-{[3-(morpholin-4-ylcarbonyl)phenyl]amino}-5-(trifluoromethyl)pyrimidin-4-yl]amino}methyl)pyridin-2-yl]methanesulfonamide] |
| 1.27 | CN(c1ncccc1CNc1nc(Nc2cccc(C(=O)N3CCC3)c2)ncc1C(F)(F)F)S(C)(=O)=O [Compound 125, N-[3-({[2-{[3-(azetidin-1-ylcarbonyl)phenyl]amino}-5-(trifluoromethyl)pyrimldin-4-yl]amino}methyl)pyridin-2-yl]-N-methylmethanesulfon-amide] |
| 2.11 | CN(c1ncccc1CNc1nc(Nc2cccc(C(=O)NCC3(O)CCC3)c2)ncc1C(F)(F)F)S(C)(=O)=O [Compound 127, N-[(1-hydroxycyclobutyl)methyl]-3-({4-[({2-[methyl(methylsulfonyl)amino]pyridin-3-yl}methyl)amino]-5-(trifluoromethyl)pyrimidin-2-yl}amino)benzamide] |
| 0.76 | CN(c1ncccc1CNc1nc(Nc2cccc(C(=O)N(CCO)CCO)c2)ncc1C(F)(F)F)S(C)(=O)=O [Compound 129, N,N-bis(2-hydroxyethyl)-3-({4-[({2-[methyl(methylsulfonyl)amino]pyridin-3-yl}methyl)amino]-5-(trifluoromethyl)pyrimidin-2-yl}amino)benzamide] |
| 10.8 | CN(C(=O)c1cccc(Nc2ncc(C(F)(F)F)c(NCc3cccnc3N(C)S(C)(=O)=O)n2)c1)C1CCCC1 [Compound 131, N-cyclopentyl-N-methyl-3-({4-[({2-[methyl(methylsulfonyl)amino]pyridin-3-yl}methyl)amino]-5-(trifluoromethyl)pyrimidin-2-yl}amino)benzamide] |
| 1.95 | CN(C)C(=O)CNC(=O)c1cccc(Nc2ncc(C(F)(F)F)c(NCc3cccnc3N(C)S(C)(=O)=O)n2)c1 [Compound 133, N-[2-(dimethylamino)-2-oxoethyl]-3-({4-[({2-[methyl(methylsulfonyl)amino]pyridin-3-yl}methyl)amino]-5-(trifluoromethyl)pyrimidin-2-yl}amino)benzamide] |
| 3.33 | CN(c1ncccc1CNc1nc(Nc2cccc(C(=O)N3CCC(C)(O)C3)c2)ncc1C(F)(F)F)S(C)(=O)=O (stereo not shown) [Compound 135, N-[3-({(2-({3-[(3-hydroxy-3-methyipyrrolidin-1-yl)carbonyl]phenyl}amino)-5-(trifluoromethyl)pyrimidin-4-yl]amino}methyl)pyridin-2-yl]-N-methylmethane-sulfonamide] |
| 4.33 | CN(C)CCN(C)C(=O)c1cccc(Nc2ncc(C(F)(F)F)c(NCc3cccnc3N(C)S(C)(=O)=O)n2)c1 [Compound 137, N-[2-(dimethylamino)ethyl]-N-methyl-3-({4-[({2-[methyl(methylsulfonyl)amino]pyridin-3-yl}methyl)amino)-5-(trifluoromethyl)pyrimidin-2-yl}amino)benzamide] |
| 1.91 | CN(c1ncccc1CNc1nc(Nc2cccc(C(=O)NCc3ccccn3)c2)ncc1C(F)(F)F)S(C)(=O)=O [Compound 139, 3-({4-[({2-[methyl(methylsulfonyl)amino]pyridin-3-yl}methyl)amino]-5-(trifluoromethyl)pyrimidin-2-yl}amino)-N-(pyridin-2-ylmethyl)benzamide] |
| 0.84 | CN(c1ncccc1CNc1nc(Nc2cccc(C(=O)NCC3(C)COC3)c2)ncc1C(F)(F)F)S(C)(=O)=O [Compound 141, 3-({4-[({2-[methyl(methylsulfonyl)amino]pyridin-3-yl}methyl)amino]-5-(trifluoromethyl)pyrimidin-2-yl}amino)-N-[(3-methyloxetan-3-yl)methyl]benzamide] |
| 2.4 | C[C@H]1COCCN1C(=O)c1cccc(Nc2ncc(C(F)(F)F)c(NCc3cccnc3N(C)S(C)(=O)=O)n2)c1 [Compound 143, N-methyl-N-{3-[({2-[(3-{[(3S)-3-methylmorpholin-4-yl]carbonyl}phenyl)amino]-5-(trifluoromethyl)pyrimidin-4-yl}amino)methyl]pyridin-2-yl}methanesulfonamide] |
| 2.54 | CN(C)CCCNC(=O)c1cccc(Nc2ncc(C(F)(F)F)c(NCc3cccnc3N(C)S(C)(=O)=O)n2)c1 [Compound 145, N-[3-(dimethylamino)propyl]-3-({4-(({2-[methyl(methylsulfonyl)amino]pyridin-3-yl}methyl)amino]-5-(trifluoromethyl)pyrimidin-2-yl}amino)benzamide] |
| 4.74 | CN(c1ncccc1CNc1nc(Nc2cccc(C(=O)N3CCCC3CO)c2)ncc1C(F)(F)F)S(C)(=O)=O (stereo not shown) [Compound 147, N-{3-[({2-[(3-{[2-(hydroxymethyl)pyrrolidin-1-yl]carbonyl}phenyl)amino]-5-(trifluoromethyl)pyrimidin-4-yl}amino)methyl]pyridin-2-yl}-N-methylmethane-sulfonamide] |
| 1.51 | COCCCNC(=O)c1cccc(Nc2ncc(C(F)(F)F)c(NCc3cccnc3N(C)S(C)(=O)=O)n2)c1 [Compound 149, N-(3-methoxypropyl)-3-({4-[({2-[methyl(methylsulfonyl)amino]pyridin-3-yl}methyl)amino]-5-(trifluoromethyl)pyrimidin-2-yl}amino)benzamide] |
| 5.24 | CC(NC(=O)c1cccc(Nc2ncc(C(F)(F)F)c(NCc3cccnc3N(C)S(C)(=O)=O)n2)c1)C1CC1 (stereo not shown) [Compound 151, N-(1-cyclopropylethyl)-3-({4-[({2-[methyl(methylsulfonyl)-amino]pyridin-3-yl}methyl)amino]-5-(trifluoromethyl)pyrimidin-2-yl}amino)benzamide] |
| 3.35 | CN(c1ncccc1CNc1nc(Nc2cccc(C(=O)N3C[C@@H](F)[C@H](F)C3)c2)ncc1C(F)(F)F)S(C)(=O)=O [Compound 153, N-{3-[({2-[(3-{[(3R,4R)-3,4-difluoropyrrolidin-1-yl]carbonyl}phenyl)amino)-5-(trifluoromethyl)pyrimidin-4-yl}amino)methyl]pyridin-2-yl}-N-methylmethane-sulfonamide] |
| 9.75 | CC1CCCN1C(=O)c1cccc(Nc2ncc(C(F)(F)F)c(NCc3cccnc3N(C)S(C)(=O)=O)n2)c1 (stereo not shown) [Compound 155, N-methyl-N-[3-({[2-({3-[(2-methylpyrrolidin-1-yl)carbonyl]phenyl}amino)-5-(trifluoromethyl)pyrimidin-4-yl]amino}methyl)pyridin-2-yl]methanesulfonamide] |
| 4.24 | CN(c1ncccc1CNc1nc(Nc2cccc(C(=O)N3CC[C@H](O)C3)c2)ncc1C(F)(F)F)S(C)(=O)=O [Compound 157, N-{3-[({2-[(3-{[(3S)-3-hydroxypyrrolidin-1-yl]carbonyl}phenyl)amino]-5-(trifluoromethyl)pyrimidin-4-yl}amino)methyl]pyridin-2-yl}-N-methylmethane-sulfonamide] |
